{"source": "patent US10123960B2", "about": "“Methods for treating of skin conditions with retinoid double conjugate compounds” (US COSMECEUTECHS LLC, priority 2013, dated 2018)", "test_system": "upper outer arm or back of each subject", "assay": "Maximization assay (human patch test: induction, rest and challenge phases)", "format": "in vivo", "design": "key to Maximization Testing Results: 72-Hour Grading / Maximization Testing Results: 48-Hour Grading: 0=not sensitized; 1=mild sensitization (viz. erythema and a little edema); 2=moderate sensitization (erythema with infiltration, raised, spreading beyond the borders of the patch, with or without vesiculation); 3=strong sensitization (large vesicula-bullous reaction)", "conditions": "for Maximization Testing Results: 48-Hour Grading: 48 hours after challenge patch; for Maximization Testing Results: 72-Hour Grading: 72 hours after challenge patch", "description": "A group of 26 subjects were tested to compare the activity of lactic acid retinoate (single conjugate) with ethyl lactate retinoate (double conjugate). As a general protocol, a patch (Webril cotton with 0.05 ml of a 5.0% aqueous solution) was applied to the upper outer arm or back of each subject. The entire test was composed of (1) an induction phase (2) a rest phase and (3) a challenge phase.\nThe scoring scale was as follows: • 0=not sensitized; • 1=mild sensitization (viz. erythema and a little edema); • 2=moderate sensitization (erythema with infiltration, raised, spreading beyond the borders of the patch, with or without vesiculation); and • 3=strong sensitization (large vesicula-bullous reaction).", "key": {"[1]": {"conditions": "Subject Number 26 (one volunteer)"}}, "note": "“Also recorded” adds a separate entry of the source.", "data": [{"smiles": "CCOC(=O)[C@@H](C)OC(=O)/C=C(C)/C=C/C=C(C)/C=C/C1=C(C)CCCC1(C)C", "note": "[ethyl lactate retinoate]", "values": [{"measurement": "share of the sample population with any skin irritation or allergic reactions", "setting": "26 subjects", "result": 0, "unit": "%"}, {"measurement": "instances of contact allergy", "setting": "48 or 72 hours after application of the challenge patches", "result": "No instances of contact allergy were recorded"}, {"measurement": "Maximization Testing Results: 48-Hour Grading", "setting": "Subject Number 01-26", "result": "Subject Number: 01-26, 48-Hour Grading: 0"}, {"measurement": "Maximization Testing Results: 72-Hour Grading", "setting": "Subject Number 01-26", "result": "Subject Number: 01-26, 72-Hour Grading: 0"}]}, {"smiles": "CC1=C(/C=C/C(C)=C/C=C/C(C)=C/C(=O)OC(C)C(=O)O)C(C)(C)CCC1", "note": "(centres unmarked) [lactyl retinoate, 2-(((2E,4E,6E,8E)-3,7-dimethyl-9-(2,6,6-trimethylcyclohex-1-en-1-yl)nona-2,4,6,8-tetraenoyl)oxy)propanoic acid]", "values": [{"measurement": "share of the sample population with a delayed skin irritation reaction presumptive of contact allergy", "setting": "25 panelists completed", "result": 4, "unit": "%"}, {"measurement": "Maximization Testing Results: 48-Hour Grading", "setting": "Subject Number 01-24", "result": "Subject Number: 01-24, 48-Hour Grading: 0"}, {"measurement": "Maximization Testing Results: 72-Hour Grading", "setting": "Subject Number 01-24", "result": "Subject Number: 01-24, 72-Hour Grading: 0"}, {"measurement": "Maximization Testing Results: 48-Hour Grading", "setting": "[1]", "result": "Subject Number: 26, 48-Hour Grading: 1"}, {"measurement": "Maximization Testing Results: 72-Hour Grading", "setting": "[1]", "result": "persisted at 72 hours (score 2); also recorded: Subject Number: 26, 72-Hour Grading: 2"}, {"measurement": "adverse or unexpected reactions in the panelists", "setting": "induction phase", "result": "No adverse or unexpected reactions were"}, {"measurement": "skin irritation at the induction patch (leading to method deviation)", "setting": "induction phase", "result": "many subjects had skin irritation sufficient enough to change protocol application"}]}]}
